Where two headings read alike, the source gives them in different places.
Tested on: panel of 55 breast cancer cell lines
Assay: Cell growth inhibition assay (Cell Titer Glo, 72 h, 9 doses; GI50, TGI, LC50)
Assay type: cell-based, human

## Nc1nc2[nH]cc(CCc3ccc(C(=O)N[C@@H](CCC(=O)O)C(=O)O)cc3)c2c(=O)[nH]1 [Pemetrexed]
Homo sapiens, AU565, cell line AU565, read-out: GI50 (converted)
  GI50: 2.95 mM
Homo sapiens, BT-474, cell line BT474, read-out: GI50 (converted)
  GI50: 2.95 mM
Homo sapiens, BT-483, cell line BT483, read-out: GI50 (converted)
  GI50: 2.95 mM
Homo sapiens, BT-549, cell line BT549, read-out: GI50 (converted)
  GI50: 2.95 mM
Homo sapiens, CAMA-1, CAMA1 cell line, censored GI50 values, read-out: GI50 (converted)
  GI50: 1.48 mM
Homo sapiens, CAMA-1, cell line CAMA1, read-out: GI50 (converted)
  GI50: 1.48 mM
Homo sapiens, HCC38, cell line HCC38, read-out: GI50 (converted)
  GI50: 2.95 mM
Homo sapiens, HCC70, cell line HCC70, read-out: GI50 (converted)
  GI50: 2.95 mM
Homo sapiens, HCC202, HCC202 cell line, censored GI50 values, read-out: GI50 (converted)
  GI50: 2.09e-05 mM
Homo sapiens, HCC202, cell line HCC202, read-out: GI50 (converted)
  GI50: 2.09e-05 mM
Homo sapiens, HCC1143, cell line HCC1143, read-out: GI50 (converted)
  GI50: 2.95 mM
Homo sapiens, HCC1187, cell line HCC1187, read-out: GI50 (converted)
  GI50: 2.95 mM
Homo sapiens, HCC1419, cell line HCC1419, read-out: GI50 (converted)
  GI50: 2.95 mM
Homo sapiens, HCC1428, cell line HCC1428, read-out: GI50 (converted)
  GI50: 2.95 mM
Homo sapiens, HCC1500, HCC1500 cell line, censored GI50 values, read-out: GI50 (converted)
  GI50: 0.000501 mM
Homo sapiens, HCC1500, cell line HCC1500, read-out: GI50 (converted)
  GI50: 0.000501 mM
Homo sapiens, HCC1806, HCC1806 cell line, censored GI50 values, read-out: GI50 (converted)
  GI50: 1.48 mM
Homo sapiens, HCC1806, cell line HCC1806, read-out: GI50 (converted)
  GI50: 1.48 mM
Homo sapiens, HCC1937, HCC1937 cell line, censored GI50 values, read-out: GI50 (converted)
  GI50: 0.155 mM
Homo sapiens, HCC1937, cell line HCC1937, read-out: GI50 (converted)
  GI50: 0.155 mM
Homo sapiens, HCC1954, HCC1954 cell line, censored GI50 values, read-out: GI50 (converted)
  GI50: 0.000214 mM
Homo sapiens, HCC1954, cell line HCC1954, read-out: GI50 (converted)
  GI50: 0.000214 mM
Homo sapiens, LY2 cell line, censored GI50 values, read-out: GI50 (converted)
  GI50: 0.000468 mM
Homo sapiens, MCF7, cell line MCF7, read-out: GI50 (converted)
  GI50: 2.95 mM
Homo sapiens, MDA-MB-157, cell line MDAMB157, read-out: GI50 (converted)
  GI50: 2.95 mM
Homo sapiens, MDA-MB-361, MDAMB361 cell line, censored GI50 values, read-out: GI50 (converted)
  GI50: 0.00049 mM
Homo sapiens, MDA-MB-361, cell line MDAMB361, read-out: GI50 (converted)
  GI50: 0.00049 mM
Homo sapiens, MDA-MB-436, cell line MDAMB436, read-out: GI50 (converted)
  GI50: 2.95 mM
Homo sapiens, MDA-MB-453, MDAMB453 cell line, censored GI50 values, read-out: GI50 (converted)
  GI50: 0.0339 mM
Homo sapiens, MDA-MB-453, cell line MDAMB453, read-out: GI50 (converted)
  GI50: 0.0339 mM
Homo sapiens, MDA-MB-468, MDAMB468 cell line, censored GI50 values, read-out: GI50 (converted)
  GI50: 1.48 mM
Homo sapiens, MDA-MB-468, cell line MDAMB468, read-out: GI50 (converted)
  GI50: 1.48 mM
Homo sapiens, SK-BR-3, SKBR3 cell line, censored GI50 values, read-out: GI50 (converted)
  GI50: 1.48 mM
Homo sapiens, SK-BR-3, cell line SKBR3, read-out: GI50 (converted)
  GI50: 1.48 mM
Homo sapiens, SUM52PE, cell line SUM52PE, read-out: GI50 (converted)
  GI50: 2.95 mM
Homo sapiens, SUM185PE, cell line SUM185PE, read-out: GI50 (converted)
  GI50: 2.95 mM
Homo sapiens, T47D, cell line T47D, read-out: GI50 (converted)
  GI50: 2.95 mM
Homo sapiens, UACC-812, cell line UACC812, read-out: GI50 (converted)
  GI50: 2.95 mM
Homo sapiens, ZR-75-1, ZR751 cell line, censored GI50 values, read-out: GI50 (converted)
  GI50: 0.204 mM
Homo sapiens, ZR-75-1, cell line ZR751, read-out: GI50 (converted)
  GI50: 0.204 mM
Homo sapiens, cell line HCC2185, read-out: GI50 (converted)
  GI50: 2.95 mM
Homo sapiens, cell line HCC3153, read-out: GI50 (converted)
  GI50: 2.95 mM
Homo sapiens, cell line LY2, read-out: GI50 (converted)
  GI50: 0.000468 mM
Homo sapiens, cell line MDAMB134V, read-out: GI50 (converted)
  GI50: 2.95 mM
Homo sapiens, cell line SUM1315MO, read-out: GI50 (converted)
  GI50: 2.95 mM

## CC(C)Oc1ccc(C(=O)N[C@H](CNC(=O)CN(C)C)Cc2ccc(-c3cn4cccc([C@H](C)O)c4n3)cc2)cc1Cl [GSK923295]
AU565 cell line, censored GI50 values, value is the negative log10 of mol/L
  GI50: 7.62
BT474 cell line, censored GI50 values, value is the negative log10 of mol/L
  GI50: 5.42
BT483 cell line, censored GI50 values, value is the negative log10 of mol/L
  GI50: 6.44
CAMA1 cell line, censored GI50 values, value is the negative log10 of mol/L
  GI50: 7.33
HCC38 cell line, censored GI50 values, value is the negative log10 of mol/L
  GI50: 7.32
HCC70 cell line, censored GI50 values, value is the negative log10 of mol/L
  GI50: 7.68
HCC202 cell line, censored GI50 values, value is the negative log10 of mol/L
  GI50: 7.77
HCC1143 cell line, censored GI50 values, value is the negative log10 of mol/L
  GI50: 6.77
HCC1187 cell line, censored GI50 values, value is the negative log10 of mol/L
  GI50: 7.52
HCC1395 cell line, censored GI50 values, value is the negative log10 of mol/L
  GI50: 7.33
HCC1419 cell line, censored GI50 values, value is the negative log10 of mol/L
  GI50: 5.72
HCC1428 cell line, censored GI50 values, value is the negative log10 of mol/L
  GI50: 5.21
HCC1500 cell line, censored GI50 values, value is the negative log10 of mol/L
  GI50: 7.28
HCC1806 cell line, censored GI50 values, value is the negative log10 of mol/L
  GI50: 7.34
HCC1937 cell line, censored GI50 values, value is the negative log10 of mol/L
  GI50: 7.20
HCC1954 cell line, censored GI50 values, value is the negative log10 of mol/L
  GI50: 7.62
HCC2185 cell line, censored GI50 values, value is the negative log10 of mol/L
  GI50: 7.43
HCC3153 cell line, censored GI50 values, value is the negative log10 of mol/L
  GI50: 7.22
MCF7 cell line, censored GI50 values, value is the negative log10 of mol/L
  GI50: 5.90
MDAMB134VI cell line, censored GI50 values, value is the negative log10 of mol/L
  GI50: 5.50
MDAMB157 cell line, censored GI50 values, value is the negative log10 of mol/L
  GI50: 7.50
MDAMB175VII cell line, censored GI50 values, value is the negative log10 of mol/L
  GI50: 6.76
MDAMB231 cell line, censored GI50 values, value is the negative log10 of mol/L
  GI50: 7.34
MDAMB361 cell line, censored GI50 values, value is the negative log10 of mol/L
  GI50: 7.42
MDAMB415 cell line, censored GI50 values, value is the negative log10 of mol/L
  GI50: 7.28
MDAMB436 cell line, censored GI50 values, value is the negative log10 of mol/L
  GI50: 7.59
MDAMB453 cell line, censored GI50 values, value is the negative log10 of mol/L
  GI50: 6.96
MDAMB468 cell line, censored GI50 values, value is the negative log10 of mol/L
  GI50: 7.61
SKBR3 cell line, censored GI50 values, value is the negative log10 of mol/L
  GI50: 7.34
SUM149PT cell line, censored GI50 values, value is the negative log10 of mol/L
  GI50: 7.17
SUM159PT cell line, censored GI50 values, value is the negative log10 of mol/L
  GI50: 7.43
SUM185PE cell line, censored GI50 values, value is the negative log10 of mol/L
  GI50: 5.42
SUM1315MO2 cell line, censored GI50 values, value is the negative log10 of mol/L
  GI50: 7.44
Cell line 600MPE, value is the negative log10 of mol/L
  GI50: 4.48
Cell line AU565, value is the negative log10 of mol/L
  GI50: 7.62
Cell line BT474, value is the negative log10 of mol/L
  GI50: 5.42
Cell line BT483, value is the negative log10 of mol/L
  GI50: 6.44
Cell line CAMA1, value is the negative log10 of mol/L
  GI50: 7.33
Cell line HCC38, value is the negative log10 of mol/L
  GI50: 7.32
Cell line HCC70, value is the negative log10 of mol/L
  GI50: 7.68
Cell line HCC202, value is the negative log10 of mol/L
  GI50: 7.77
Cell line HCC1143, value is the negative log10 of mol/L
  GI50: 6.77
Cell line HCC1187, value is the negative log10 of mol/L
  GI50: 7.52
Cell line HCC1395, value is the negative log10 of mol/L
  GI50: 7.33
Cell line HCC1419, value is the negative log10 of mol/L
  GI50: 5.72
Cell line HCC1428, value is the negative log10 of mol/L
  GI50: 5.21
Cell line HCC1500, value is the negative log10 of mol/L
  GI50: 7.28
Cell line HCC1806, value is the negative log10 of mol/L
  GI50: 7.34
Cell line HCC1937, value is the negative log10 of mol/L
  GI50: 7.20
Cell line HCC1954, value is the negative log10 of mol/L
  GI50: 7.62
Cell line HCC2185, value is the negative log10 of mol/L
  GI50: 7.43
Cell line HCC3153, value is the negative log10 of mol/L
  GI50: 7.22
Cell line MCF7, value is the negative log10 of mol/L
  GI50: 5.90
Cell line MDAMB134V, value is the negative log10 of mol/L
  GI50: 5.50
Cell line MDAMB157, value is the negative log10 of mol/L
  GI50: 7.50
Cell line MDAMB175V, value is the negative log10 of mol/L
  GI50: 6.76
Cell line MDAMB231, value is the negative log10 of mol/L
  GI50: 7.34
Cell line MDAMB361, value is the negative log10 of mol/L
  GI50: 7.42
Cell line MDAMB415, value is the negative log10 of mol/L
  GI50: 7.28
Cell line MDAMB436, value is the negative log10 of mol/L
  GI50: 7.59
Cell line MDAMB453, value is the negative log10 of mol/L
  GI50: 6.96
Cell line MDAMB468, value is the negative log10 of mol/L
  GI50: 7.61
Cell line SKBR3, value is the negative log10 of mol/L
  GI50: 7.34
Cell line SUM52PE, value is the negative log10 of mol/L
  GI50: 7.64
Cell line SUM149PT, value is the negative log10 of mol/L
  GI50: 7.17
Cell line SUM159PT, value is the negative log10 of mol/L
  GI50: 7.43
Cell line SUM185PE, value is the negative log10 of mol/L
  GI50: 5.42
Cell line SUM1315MO, value is the negative log10 of mol/L
  GI50: 7.44
Cell line UACC812, value is the negative log10 of mol/L
  GI50: 7.92
Cell line UACC893, value is the negative log10 of mol/L
  GI50: 7.91
Cell line ZR75B, value is the negative log10 of mol/L
  GI50: 7.15
Cell line ZR751, value is the negative log10 of mol/L
  GI50: 6.92
Cell line ZR7530, value is the negative log10 of mol/L
  GI50: 7.68
